Where two headings read alike, the source gives them in different places. Square brackets hold non-standard residues; d marks the D form. Peptide text beside a SMILES is read from it. Nspe(4-Br) = C[C@H](NCC(=O)O)c1ccc(Br)cc1; Nspe = C[C@H](NCC(=O)O)c1ccccc1; Nlys = NCCCCNCC(=O)O
How the values were obtained:
[1] = system: ESKAPEE pathogens (all bacteria); assay: Geometric mean MIC, therapeutic index and selectivity ratio, all bacteria; type: cell-based; details: across the 23 ESKAPEE strains
Description: (§1) Briefly, bacteria were suspended in cation-adjusted Mueller–Hinton broth (CAMHB; Oxoid, UK) for antibiotics, or MHB (Oxoid, UK) for peptidomimetics to obtain 5 × 10^5 colony forming unit (CFU) ml^−1. […] Positive controls contained only microbes, and blanks contained only media. Microbial suspensions (100 µl) were added to wells, plates wrapped, and incubated at 37°C, 120 rpm for 16–20 h. After incubation, suspensions were removed, log10 diluted, and plated on Trypticase Soya Agar with phosphatidylcholine and Tween 80 to determine minimum bactericidal or fungicidal concentration (MBC or MFC). […] Geometric mean MIC of the peptoids were calculated to evaluate the broad overview of antimicrobial activity across the pathogens.
The therapeutic indices (TIs) of the compounds were calculated with the use of following formula: […]

E. coli 0015 = system: E. coli 0015
Description: as §1

P. aeruginosa AR-1270 = system: P. aeruginosa AR-1270
Description: as §1

A. baumannii 006 = system: A. baumannii 006
Description: as §1

A. baumannii 008 = details: 008
Description: as §1

K. pneumoniae JIE2709 = system: K. pneumoniae JIE2709
Description: as §1

P. aeruginosa 216 = system: P. aeruginosa 216
Description: as §1

En. cloacae 005 = system: En. cloacae 005
Description: as §1

E. coli 0010 = system: E. coli 0010
Description: as §1

A. baumannii 007 = system: A. baumannii 007
Description: as §1

A. baumannii ATCC 19 606 = system: A. baumannii ATCC 19 606
Description: as §1

En. cloacae 003 = system: En. cloacae 003
Description: as §1

En. cloacae 001 = system: En. cloacae 001
Description: as §1

P. aeruginosa 33 = system: P. aeruginosa 33
Description: as §1

S. aureus 117 = system: S. aureus 117
Description: as §1

E. coli 005 = system: E. coli 005
Description: as §1

S. aureus 38 = system: S. aureus 38
Description: as §1

S. aureus 105 = system: S. aureus 105
Description: as §1

S. aureus 04 = details: 04
Description: as §1

K. pneumoniae JIE4212 = system: K. pneumoniae JIE4212
Description: as §1

[2] = system: Enteroc. faecalis NCTC 13 379
Description: as §1

E. coli 0011 = system: E. coli 0011
Description: as §1

K. pneumoniae JIE2713 = system: K. pneumoniae JIE2713
Description: as §1

A. baumannii 005 = system: A. baumannii 005
Description: as §1

[3] = E. coli 0015, MHB (melimine/Mel4 with 0.2% BSA, 0.01% acetic acid), mean MIC
[4] = P. aeruginosa AR-1270, MHB (melimine/Mel4 with 0.2% BSA, 0.01% acetic acid), mean MIC
[5] = A. baumannii 006, MHB (melimine/Mel4 with 0.2% BSA, 0.01% acetic acid), mean MIC
[6] = K. pneumoniae JIE2709, MHB (melimine/Mel4 with 0.2% BSA, 0.01% acetic acid), mean MIC
[7] = P. aeruginosa 216, MHB (melimine/Mel4 with 0.2% BSA, 0.01% acetic acid), mean MIC
[8] = E. coli 0010, MHB (melimine/Mel4 with 0.2% BSA, 0.01% acetic acid), mean MIC
[9] = A. baumannii 007, MHB (melimine/Mel4 with 0.2% BSA, 0.01% acetic acid), mean MIC
[10] = A. baumannii ATCC 19 606, MHB (melimine/Mel4 with 0.2% BSA, 0.01% acetic acid), mean MIC
[11] = En. cloacae 003, MHB (melimine/Mel4 with 0.2% BSA, 0.01% acetic acid), mean MIC
[12] = En. cloacae 001, MHB (melimine/Mel4 with 0.2% BSA, 0.01% acetic acid), mean MIC
[13] = E. coli 005, MHB (melimine/Mel4 with 0.2% BSA, 0.01% acetic acid), mean MIC
[14] = S. aureus 105, MHB (melimine/Mel4 with 0.2% BSA, 0.01% acetic acid), mean MIC
[15] = K. pneumoniae JIE4212, MHB (melimine/Mel4 with 0.2% BSA, 0.01% acetic acid), mean MIC
[16] = Enteroc. faecalis NCTC 13 379, MHB (melimine/Mel4 with 0.2% BSA, 0.01% acetic acid), mean MIC
[17] = E. coli 0011, MHB (melimine/Mel4 with 0.2% BSA, 0.01% acetic acid), mean MIC
[18] = K. pneumoniae JIE2713, MHB (melimine/Mel4 with 0.2% BSA, 0.01% acetic acid), mean MIC
[19] = A. baumannii 005, MHB (melimine/Mel4 with 0.2% BSA, 0.01% acetic acid), mean MIC

Structure (SMILES): C[C@@H](c1ccccc1)N(CC(N)=O)C(=O)CN(C(=O)CN(CCCCN)C(=O)CN(C(=O)CN(C(=O)CN(CCCCN)C(=O)CN(C(=O)CN(C(=O)CN(CCCCN)C(=O)CN(C(=O)CN(C(=O)CNCCCCN)[C@@H](C)c1ccccc1)[C@@H](C)c1ccccc1)[C@@H](C)c1ccccc1)[C@@H](C)c1ccccc1)[C@@H](C)c1ccccc1)[C@@H](C)c1ccccc1)[C@@H](C)c1ccccc1 [TM1] (H-[Nlys][Nspe][Nspe][Nlys][Nspe][Nspe][Nlys][Nspe][Nspe][Nlys][Nspe][Nspe]-NH2)
- Geometric mean MIC, all bacteria [1]: 13.0 µg/mL
- Geometric mean MIC, all bacteria ([1]; value in brackets): 7.2 µM
- MIC of peptidomimetics (E. coli 0015; 0015): 17.2 µM
- MIC of peptidomimetics (E. coli 0015; [3]): 31.3 µg/mL
- MIC of peptidomimetics (P. aeruginosa AR-1270; [4]): 31.3 µg/mL
- MIC of peptidomimetics (P. aeruginosa AR-1270; P. aeruginosa AR-1270, value in brackets): 17.2 µM
- MIC of peptidomimetics (A. baumannii 006; 006): 2.1 µM
- MIC of peptidomimetics (A. baumannii 006; [5]): 3.9 µg/mL
- MIC of peptidomimetics (A. baumannii 008): 7.8 µg/mL
- MIC of peptidomimetics (K. pneumoniae JIE2709; [6]): 15.6 µg/mL
- MIC of peptidomimetics (K. pneumoniae JIE2709; K. pneumoniae JIE2709, value in brackets): 8.6 µM
- MIC of peptidomimetics (P. aeruginosa 216; 216): 8.6 µM
- MIC of peptidomimetics (P. aeruginosa 216; [7]): 15.6 µg/mL
- MIC of peptidomimetics (En. cloacae 005): 8.6 µM
- MIC of peptidomimetics (En. cloacae 005; En. cloacae 005, MHB (melimine/Mel4 with 0.2% BSA, 0.01% acetic acid), mean MIC): 15.6 µg/mL
- MIC of peptidomimetics (E. coli 0010; 0010): 8.6 µM
- MIC of peptidomimetics (E. coli 0010; [8]): 15.6 µg/mL
- MIC of peptidomimetics (A. baumannii 007; 007): 2.1 µM
- MIC of peptidomimetics (A. baumannii 007; [9]): 3.9 µg/mL
- MIC of peptidomimetics (A. baumannii ATCC 19 606; [10]): 3.9 µg/mL
- MIC of peptidomimetics (A. baumannii ATCC 19 606; ATCC 19): 2.1 µM
- MIC of peptidomimetics (En. cloacae 003): 34.4 µM
- MIC of peptidomimetics (En. cloacae 003; [11]): 62.5 µg/mL
- MIC of peptidomimetics (En. cloacae 001): 8.6 µM
- MIC of peptidomimetics (En. cloacae 001; [12]): 15.6 µg/mL
- MIC of peptidomimetics (P. aeruginosa 33): 15.6 (8.6) µg ml^−1
- MIC of peptidomimetics (P. aeruginosa 33; 33): 8.6 µmol/L
- MIC of peptidomimetics (S. aureus 117; 117): 7.8 µg/mL
- MIC of peptidomimetics (E. coli 005; 005): 8.6 µM
- MIC of peptidomimetics (E. coli 005; [13]): 15.6 µg/mL
- MIC of peptidomimetics (S. aureus 38; 38): 7.8 µg/mL
- MIC of peptidomimetics (S. aureus 105; 105): 2.1 µM
- MIC of peptidomimetics (S. aureus 105; [14]): 3.9 µg/mL
- MIC of peptidomimetics (S. aureus 04): 7.8 µg/mL
- MIC of peptidomimetics (K. pneumoniae JIE4212; [15]): 15.6 µg/mL
- MIC of peptidomimetics (K. pneumoniae JIE4212; K. pneumoniae JIE4212, value in brackets): 8.6 µM
- MIC of peptidomimetics [2, 16]: 31.3 µg/mL
- MIC of peptidomimetics ([2]; Enteroc. faecalis NCTC 13 379, value in brackets): 17.2 µM
- MIC of peptidomimetics (E. coli 0011; 0011): 17.2 µM
- MIC of peptidomimetics (E. coli 0011; [17]): 31.3 µg/mL
- MIC of peptidomimetics (K. pneumoniae JIE2713; [18]): 62.5 µg/mL
- MIC of peptidomimetics (K. pneumoniae JIE2713; K. pneumoniae JIE2713, value in brackets): 34.4 µM
- MIC of peptidomimetics (A. baumannii 005; 005): 2.1 µM
- MIC of peptidomimetics (A. baumannii 005; [19]): 3.9 µg/mL

Structure (SMILES): C[C@@H](c1ccc(Br)cc1)N(CC(N)=O)C(=O)CN(C(=O)CN(CCCCN)C(=O)CN(C(=O)CN(C(=O)CNCCCCN)[C@@H](C)c1ccccc1)[C@@H](C)c1ccc(Br)cc1)[C@@H](C)c1ccccc1 [TM2] (H-[Nlys][Nspe][Nspe(4-Br)][Nlys][Nspe][Nspe(4-Br)]-NH2)
- Geometric mean MIC, all bacteria [1]: 26.1 µg/mL
- Geometric mean MIC, all bacteria ([1]; value in brackets): 24.2 µM
- MIC of peptidomimetics (E. coli 0015; 0015): 58.1 µM
- MIC of peptidomimetics (E. coli 0015; [3]): 62.5 µg/mL
- MIC of peptidomimetics (P. aeruginosa AR-1270; AR-1270): 29.0 µM
- MIC of peptidomimetics (P. aeruginosa AR-1270; [4]): 31.3 µg/mL
- MIC of peptidomimetics (A. baumannii 006; 006): 7.2 µM
- MIC of peptidomimetics (A. baumannii 006; [5]): 7.8 µg/mL
- MIC of peptidomimetics (A. baumannii 008): 15.6 µg/mL
- MIC of peptidomimetics (K. pneumoniae JIE2709; JIE2709): 116.2 µM
- MIC of peptidomimetics (K. pneumoniae JIE2709; [6]): 125 µg/mL
- MIC of peptidomimetics (P. aeruginosa 216; 216): 14.5 µM
- MIC of peptidomimetics (P. aeruginosa 216; [7]): 15.6 µg/mL
- MIC of peptidomimetics (En. cloacae 005): 15.6 µg/mL
- MIC of peptidomimetics (E. coli 0010; 0010): 58.1 µM
- MIC of peptidomimetics (E. coli 0010; [8]): 62.5 µg/mL
- MIC of peptidomimetics (A. baumannii 007; 007): 29.0 µM
- MIC of peptidomimetics (A. baumannii 007; [9]): 31.3 µg/mL
- MIC of peptidomimetics (A. baumannii ATCC 19 606; [10]): 31.3 µg/mL
- MIC of peptidomimetics (A. baumannii ATCC 19 606; ATCC 19): 29.0 µM
- MIC of peptidomimetics (En. cloacae 003): 29.0 µM
- MIC of peptidomimetics (En. cloacae 003; [11]): 31.3 µg/mL
- MIC of peptidomimetics (En. cloacae 001): 29.0 µM
- MIC of peptidomimetics (En. cloacae 001; [12]): 31.3 µg/mL
- MIC of peptidomimetics (P. aeruginosa 33; 33): 29.0 µmol/L
- MIC of peptidomimetics (P. aeruginosa 33; P. aeruginosa 33, MHB (melimine/Mel4 with 0.2% BSA, 0.01% acetic acid), mean MIC): 31.3 µg/mL
- MIC of peptidomimetics (S. aureus 117; 117): 7.2 µM
- MIC of peptidomimetics (S. aureus 117; S. aureus 117, MHB (melimine/Mel4 with 0.2% BSA, 0.01% acetic acid), mean MIC): 7.8 µg/mL
- MIC of peptidomimetics (E. coli 005; 005): 116.2 µM
- MIC of peptidomimetics (E. coli 005; [13]): 125 µg/mL
- MIC of peptidomimetics (S. aureus 38; 38): 7.2 µM
- MIC of peptidomimetics (S. aureus 38; S. aureus 38, MHB (melimine/Mel4 with 0.2% BSA, 0.01% acetic acid), mean MIC): 7.8 µg/mL
- MIC of peptidomimetics (S. aureus 105; 105): 7.2 µM
- MIC of peptidomimetics (S. aureus 105; [14]): 7.8 µg/mL
- MIC of peptidomimetics (S. aureus 04): 3.9 µg/mL
- MIC of peptidomimetics (K. pneumoniae JIE4212; JIE4212): 58.1 µM
- MIC of peptidomimetics (K. pneumoniae JIE4212; [15]): 62.5 µg/mL
- MIC of peptidomimetics [2, 16]: 31.3 µg/mL
- MIC of peptidomimetics ([2]; NCTC 13): 29.0 µM
- MIC of peptidomimetics (E. coli 0011; 0011): 58.1 µM
- MIC of peptidomimetics (E. coli 0011; [17]): 62.5 µg/mL
- MIC of peptidomimetics (K. pneumoniae JIE2713; JIE2713): 116.2 µM
- MIC of peptidomimetics (K. pneumoniae JIE2713; [18]): 125 µg/mL
- MIC of peptidomimetics (A. baumannii 005; 005): 7.2 µM
- MIC of peptidomimetics (A. baumannii 005; [19]): 7.8 µg/mL

Reference: PMC11879280, “Antimicrobial activity of peptoids against Metallo-β-lactamase-producing Klebsiella pneumoniae, Acinetobacter baumannii, Pseudomonas aeruginosa, and other WHO priority pathogens, including Candida auris” (Journal of Applied Microbiology, 2025)
